# Data published in paper PMC8359193, “Summary of reference chemicals evaluated by the fish short‐term reproduction assay, OECD TG229, using Japanese Medaka, Oryzias latipes” (Journal of Applied Toxicology, 2021).
# Entries after “also recorded” stand apart in the source; their conditions may differ.
# Key:
# medaka ARβ (mARβ) = medaka ARβ (mARβ) (Oryzias latipes, UniProt D1MV73); assay: Medaka ARβ reporter gene assay (RGA), agonist assay, HepG2 cells; type: cell-based, Japanese medaka (Oryzias latipes)
# Procedure: To support interpretation of the biological effects observed in the FSTRA studies, in vitro RGAs using medaka Esr1 (mEsr1) and medaka ARβ (mARβ) were performed for the 16 test chemicals.
# For the assays, human liver cancer cell line, HepG2, was used as the host cells, and mARβ/pcDNA3.1, MMTV‐Luc, and pRL‐TK‐Rlu were used as mARβ expression vector, reporter vector, and internal control vector, respectively.
# Effect concentrations, that is, EC50 (a half maximal effective concentration) in the agonist assay and IC50 (a half maximal inhibitory concentration) in the antagonist assay, were estimated by nonlinear curve fitting (e.g., three parameters logistic regression curve) using GraphPad Prism (GraphPad Software Inc., La Jolla, CA, USA).
# [1] = system: Japanese medaka (Oryzias latipes); assay: Fish short-term reproduction assay (FSTRA, OECD TG229), 21-day flow-through exposure; settings: for GSI Female / GSI Male / HSI Male / Length Male / Weight Male / HSI Female / Length Female / Weight Female: at completion of exposure; for Fertility rate (%) / Mortality (%) Female / Mortality (%) Male / Number of fertilized eggs / Number of total eggs / SSC Female / SSC Male / VTG (ng/mg of liver) Female / VTG (ng/mg of liver) Male: 21 days; for effect on fecundity (number of total eggs), in words: within the test concentrations
# Procedure, shortened: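 Run to OECD TG229: mature NIES-R medaka pairs (3♂/3♀ per vessel, 4 vessels per treatment plus dilution water control) were dosed by continuous flow-through for 21 days. Test concentrations were spaced 2- to 5-fold. Daily spawned eggs were counted under the microscope for fertilized versus unfertilized.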
# medaka ARβ (mARβ), sequence (D1MV73 entry or part of it): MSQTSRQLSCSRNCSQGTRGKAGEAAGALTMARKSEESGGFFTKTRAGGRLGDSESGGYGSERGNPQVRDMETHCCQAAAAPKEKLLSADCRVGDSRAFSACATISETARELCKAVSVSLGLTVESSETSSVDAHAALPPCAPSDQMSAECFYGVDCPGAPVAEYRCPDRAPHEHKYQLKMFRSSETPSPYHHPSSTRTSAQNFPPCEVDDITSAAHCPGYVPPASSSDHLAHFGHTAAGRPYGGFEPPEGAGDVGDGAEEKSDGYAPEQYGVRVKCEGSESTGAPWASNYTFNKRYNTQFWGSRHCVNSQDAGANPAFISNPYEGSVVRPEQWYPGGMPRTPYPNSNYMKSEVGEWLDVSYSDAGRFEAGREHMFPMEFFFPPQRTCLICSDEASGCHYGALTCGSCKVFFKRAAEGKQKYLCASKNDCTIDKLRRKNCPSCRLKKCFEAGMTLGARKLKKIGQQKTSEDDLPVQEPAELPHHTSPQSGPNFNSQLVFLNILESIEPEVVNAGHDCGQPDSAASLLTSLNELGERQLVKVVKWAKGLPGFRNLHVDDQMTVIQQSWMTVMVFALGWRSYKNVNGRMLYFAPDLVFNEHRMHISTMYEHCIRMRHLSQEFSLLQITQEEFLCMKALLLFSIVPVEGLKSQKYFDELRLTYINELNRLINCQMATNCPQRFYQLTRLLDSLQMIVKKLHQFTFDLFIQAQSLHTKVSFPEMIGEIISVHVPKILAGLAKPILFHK
smiles,measurement,setting,value
"CC(=O)[C@H]1CC[C@H]2[C@@H]3CCC4=CC(=O)CC[C@]4(C)[C@H]3CC[C@]12C [P4, Progesterone]",mARβ agonist activity (in words),medaka ARβ (mARβ),potent AR agonists
same,"effect on female hepatic VTG, in words",[1]; 21-day exposure,no alteration
same,LOEC on female SSC (papillary process formation on anal fin),"[1]; 21-day exposure, measured conc.",11 µg/L
same,GSI Female,[1]; measured conc. 243 μg/L,36.9%
same,GSI Male,[1]; measured conc. 11 μg/L,1.20%
same,HSI Male,[1]; measured conc. 11 μg/L,2.0%
same,Length Male,[1]; measured conc. 11 μg/L,36.9 mm
same,Weight Male,[1]; measured conc. 11 μg/L,501 mg
same,GSI Male,[1]; measured conc. 24 μg/L,1.04%
same,HSI Male,[1]; measured conc. 24 μg/L,1.9%
same,Length Male,[1]; measured conc. 24 μg/L,36.4 mm
same,Weight Male,[1]; measured conc. 24 μg/L,475 mg
same,GSI Male,[1]; measured conc. 64 μg/L,1.14%
same,HSI Male,[1]; measured conc. 64 μg/L,2.8%
same,Length Male,[1]; measured conc. 64 μg/L,37.1 mm
same,Weight Male,[1]; measured conc. 64 μg/L,465 mg
same,GSI Male,[1]; measured conc. 243 μg/L,1.15%
same,HSI Male,[1]; measured conc. 243 μg/L,2.1%
same,Length Male,[1]; measured conc. 243 μg/L,36.9 mm
same,Weight Male,[1]; measured conc. 243 μg/L,479 mg
same,Fertility rate (%),[1]; measured conc. 11 μg/L,92%
same,Mortality (%) Female,[1]; measured conc. 11 μg/L,0%
same,Mortality (%) Male,[1]; measured conc. 11 μg/L,0%
same,Number of fertilized eggs,[1]; measured conc. 11 μg/L,17
same,Number of total eggs,[1]; measured conc. 11 μg/L,18 ± 3.8 /female/day
same,SSC Female,[1]; measured conc. 11 μg/L,11 ± 8.9
same,SSC Male,[1]; measured conc. 11 μg/L,109 ± 14
same,VTG (ng/mg of liver) Female,[1]; measured conc. 11 μg/L,746 ± 419 ng/mg of liver
same,VTG (ng/mg of liver) Male,[1]; measured conc. 11 μg/L,33 ± 29 ng/mg of liver
same,Fertility rate (%),[1]; measured conc. 24 μg/L,91%
same,Mortality (%) Female,[1]; measured conc. 24 μg/L,8%
same,Mortality (%) Male,[1]; measured conc. 24 μg/L,0%
same,Number of fertilized eggs,[1]; measured conc. 24 μg/L,16
same,Number of total eggs,[1]; measured conc. 24 μg/L,17 ± 4.0 /female/day
same,SSC Female,[1]; measured conc. 24 μg/L,21 ± 5.9
same,SSC Male,[1]; measured conc. 24 μg/L,108 ± 20
same,VTG (ng/mg of liver) Female,[1]; measured conc. 24 μg/L,818 ± 270 ng/mg of liver
same,VTG (ng/mg of liver) Male,[1]; measured conc. 24 μg/L,29 ± 22 ng/mg of liver
same,Fertility rate (%),[1]; measured conc. 64 μg/L,87%
same,Mortality (%) Female,[1]; measured conc. 64 μg/L,8%
same,Mortality (%) Male,[1]; measured conc. 64 μg/L,0%
same,Number of fertilized eggs,[1]; measured conc. 64 μg/L,15
same,Number of total eggs,[1]; measured conc. 64 μg/L,16 ± 6.5 /female/day
same,SSC Female,[1]; measured conc. 64 μg/L,35 ± 8.9
same,SSC Male,[1]; measured conc. 64 μg/L,101 ± 13
same,VTG (ng/mg of liver) Female,[1]; measured conc. 64 μg/L,"1,008 ± 445 ng/mg of liver"
same,VTG (ng/mg of liver) Male,[1]; measured conc. 64 μg/L,37 ± 27 ng/mg of liver
same,Fertility rate (%),[1]; measured conc. 243 μg/L,2.9%
same,Mortality (%) Female,[1]; measured conc. 243 μg/L,83%
same,Mortality (%) Male,[1]; measured conc. 243 μg/L,50%
same,Number of fertilized eggs,[1]; measured conc. 243 μg/L,0.2
same,Number of total eggs,[1]; measured conc. 243 μg/L,1.0 ± 2.3 /female/day
same,SSC Female,[1]; measured conc. 243 μg/L,32 ± 21
same,SSC Male,[1]; measured conc. 243 μg/L,100 ± 10
same,VTG (ng/mg of liver) Female,[1]; measured conc. 243 μg/L,899 ± 139 ng/mg of liver
same,VTG (ng/mg of liver) Male,[1]; measured conc. 243 μg/L,37 ± 36 ng/mg of liver
same,"effect on fecundity (number of total eggs), in words",[1]; 21-day exposure,significant difference from the control
"CCCCCCCCCCCCOS(=O)(=O)[O-].[Na+] [SDS, Sodium dodecyl sulfate]",mARβ agonist activity (in words),medaka ARβ (mARβ),no significant increase in hold activation; also recorded: neithEsr agonistic nor antagonistic activity
same,EC50,"medaka ARβ (mARβ); mARβ RGA agonist assay, ND = no significant response even at the highest assay concentration (in parentheses)",> 100 µM
same,"effect on fertility rate, in words",[1]; 21-day exposure,significant decrease; also recorded: significant reduction
same,"effect on male hepatic VTG, in words",[1]; 21-day exposure,no VTG induction
same,GSI Female,[1]; measured conc. 0.748 mg/L,10.9%
same,HSI Female,[1]; measured conc. 0.748 mg/L,4.8%
same,Length Female,[1]; measured conc. 0.748 mg/L,35.6 mm
same,Weight Female,[1]; measured conc. 0.748 mg/L,547 mg
same,GSI Female,[1]; measured conc. 2.46 mg/L,10.8%
same,HSI Female,[1]; measured conc. 2.46 mg/L,4.8%
same,Length Female,[1]; measured conc. 2.46 mg/L,36.6 mm
same,Weight Female,[1]; measured conc. 2.46 mg/L,573 mg
same,GSI Female,[1]; measured conc. 10.0 mg/L,11.0%
same,HSI Female,[1]; measured conc. 10.0 mg/L,4.9%
same,Length Female,[1]; measured conc. 10.0 mg/L,36.1 mm
same,Weight Female,[1]; measured conc. 10.0 mg/L,573 mg
same,GSI Male,[1]; measured conc. 0.748 mg/L,0.88%
same,HSI Male,[1]; measured conc. 0.748 mg/L,2.3%
same,Length Male,[1]; measured conc. 0.748 mg/L,36.7 mm
same,Weight Male,[1]; measured conc. 0.748 mg/L,544 mg
same,GSI Male,[1]; measured conc. 2.46 mg/L,0.91%
same,HSI Male,[1]; measured conc. 2.46 mg/L,2.0%
same,Length Male,[1]; measured conc. 2.46 mg/L,36.7 mm
same,Weight Male,[1]; measured conc. 2.46 mg/L,519 mg
same,GSI Male,[1]; measured conc. 10.0 mg/L,1.17%
same,HSI Male,[1]; measured conc. 10.0 mg/L,2.2%
same,Length Male,[1]; measured conc. 10.0 mg/L,35.6 mm
same,Weight Male,[1]; measured conc. 10.0 mg/L,493 mg
same,Fertility rate (%),[1]; measured conc. 0.748 mg/L,95%
same,Mortality (%) Female,[1]; measured conc. 0.748 mg/L,0%
same,Mortality (%) Male,[1]; measured conc. 0.748 mg/L,0%
same,Number of fertilized eggs,[1]; measured conc. 0.748 mg/L,27
same,Number of total eggs,[1]; measured conc. 0.748 mg/L,29 ± 3.9 /female/day
same,SSC Female,[1]; measured conc. 0.748 mg/L,0 ± 0
same,SSC Male,[1]; measured conc. 0.748 mg/L,107 ± 8.7
same,VTG (ng/mg of liver) Female,[1]; measured conc. 0.748 mg/L,"3,780 ± 305 ng/mg of liver"
same,VTG (ng/mg of liver) Male,[1]; measured conc. 0.748 mg/L,3.0 ± 4.2 ng/mg of liver
same,Fertility rate (%),[1]; measured conc. 2.46 mg/L,93%
same,Mortality (%) Female,[1]; measured conc. 2.46 mg/L,0%
same,Mortality (%) Male,[1]; measured conc. 2.46 mg/L,0%
same,Number of fertilized eggs,[1]; measured conc. 2.46 mg/L,27
same,Number of total eggs,[1]; measured conc. 2.46 mg/L,30 ± 2.7 /female/day
same,SSC Female,[1]; measured conc. 2.46 mg/L,0 ± 0
same,SSC Male,[1]; measured conc. 2.46 mg/L,112 ± 11
same,VTG (ng/mg of liver) Female,[1]; measured conc. 2.46 mg/L,"4,930 ± 189 ng/mg of liver"
same,VTG (ng/mg of liver) Male,[1]; measured conc. 2.46 mg/L,6.6 ± 11 ng/mg of liver
same,Fertility rate (%),[1]; measured conc. 10.0 mg/L,85%
same,Mortality (%) Female,[1]; measured conc. 10.0 mg/L,0%
same,Mortality (%) Male,[1]; measured conc. 10.0 mg/L,0%
same,Number of fertilized eggs,[1]; measured conc. 10.0 mg/L,25
same,Number of total eggs,[1]; measured conc. 10.0 mg/L,30 ± 1.8 /female/day
same,SSC Female,[1]; measured conc. 10.0 mg/L,0 ± 0
same,SSC Male,[1]; measured conc. 10.0 mg/L,110 ± 3.5
same,VTG (ng/mg of liver) Female,[1]; measured conc. 10.0 mg/L,"4,520 ± 906 ng/mg of liver"
same,VTG (ng/mg of liver) Male,[1]; measured conc. 10.0 mg/L,1.0 ± 0.5 ng/mg of liver
same,"effect on fecundity (number of total eggs), in words",[1]; 21-day exposure,no significant effect
